Experimental data: article PMC12595434, “Development of retinoid nuclear receptor pathway antagonists through targeting aldehyde dehydrogenase 1A3” (iScience, 2025)

Experiments:
[1] = target: op-delta (Homo sapiens, UniProt P41143); assay: Off-target profiling panel; type: binding; conditions: read-out: Inhibition by MBE1 at 10 μM (%)
[2] = target: AR (Homo sapiens, UniProt P10275); assay: Off-target profiling panel; type: binding; conditions: read-out: Inhibition by MBE1 at 10 μM (%)
[3] = target: nACHR-Alpha7 (Homo sapiens, UniProt P36544); assay: biochemical; type: binding; conditions: read-out: Inhibition by MBE1 at 10 μM (%)
Sequence of nACHR-Alpha7 (P36544 23-502): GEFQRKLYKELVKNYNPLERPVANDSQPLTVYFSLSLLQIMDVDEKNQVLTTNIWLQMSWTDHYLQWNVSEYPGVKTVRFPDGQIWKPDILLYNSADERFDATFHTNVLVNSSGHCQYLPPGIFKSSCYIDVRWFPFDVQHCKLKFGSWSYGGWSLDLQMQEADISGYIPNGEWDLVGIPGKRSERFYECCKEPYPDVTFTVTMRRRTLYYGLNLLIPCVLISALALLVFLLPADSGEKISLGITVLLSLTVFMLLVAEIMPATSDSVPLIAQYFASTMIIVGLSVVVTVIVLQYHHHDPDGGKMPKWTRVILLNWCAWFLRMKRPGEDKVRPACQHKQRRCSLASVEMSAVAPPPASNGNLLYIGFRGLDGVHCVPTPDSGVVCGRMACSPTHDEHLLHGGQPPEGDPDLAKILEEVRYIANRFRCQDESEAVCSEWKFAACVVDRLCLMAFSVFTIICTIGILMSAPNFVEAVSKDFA

[4] = target: Beta2 (Homo sapiens, UniProt P07550); assay: Off-target profiling panel; type: binding; conditions: read-out: Inhibition by MBE1 at 10 μM (%)
Sequence of Beta2 (P07550 whole entry): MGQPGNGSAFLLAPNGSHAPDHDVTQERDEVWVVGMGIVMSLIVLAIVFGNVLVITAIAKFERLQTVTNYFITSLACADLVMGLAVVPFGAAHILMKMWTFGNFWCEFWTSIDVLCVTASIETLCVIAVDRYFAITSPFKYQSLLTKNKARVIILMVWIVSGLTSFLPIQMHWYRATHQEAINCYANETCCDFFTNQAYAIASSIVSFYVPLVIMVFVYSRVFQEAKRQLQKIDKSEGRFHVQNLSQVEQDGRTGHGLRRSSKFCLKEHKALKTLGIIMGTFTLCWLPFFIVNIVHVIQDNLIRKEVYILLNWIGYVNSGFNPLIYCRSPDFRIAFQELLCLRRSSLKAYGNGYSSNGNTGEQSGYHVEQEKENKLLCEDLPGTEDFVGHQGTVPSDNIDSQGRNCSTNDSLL

[5] = target: D2 (Homo sapiens, UniProt P14416); assay: Off-target profiling panel; type: binding; conditions: read-out: Inhibition by MBE1 at 10 μM (%)
Sequence of D2 (P14416 whole entry): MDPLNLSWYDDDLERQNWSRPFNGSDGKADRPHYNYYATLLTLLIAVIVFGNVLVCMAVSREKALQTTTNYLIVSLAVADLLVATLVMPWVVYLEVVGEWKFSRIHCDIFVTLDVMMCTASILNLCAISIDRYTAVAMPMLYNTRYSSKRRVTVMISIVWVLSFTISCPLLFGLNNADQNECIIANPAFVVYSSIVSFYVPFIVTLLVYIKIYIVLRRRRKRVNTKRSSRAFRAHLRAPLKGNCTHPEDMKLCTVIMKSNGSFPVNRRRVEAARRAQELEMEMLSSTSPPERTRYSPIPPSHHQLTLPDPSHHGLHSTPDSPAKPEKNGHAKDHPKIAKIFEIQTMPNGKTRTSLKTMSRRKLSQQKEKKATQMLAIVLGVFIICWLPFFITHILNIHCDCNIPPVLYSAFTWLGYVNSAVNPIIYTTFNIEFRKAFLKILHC

[6] = target: CB1 (Homo sapiens, UniProt P21554); assay: Off-target profiling panel; type: binding; conditions: read-out: Inhibition by MBE1 at 10 μM (%)
Sequence of CB1 (P21554 whole entry): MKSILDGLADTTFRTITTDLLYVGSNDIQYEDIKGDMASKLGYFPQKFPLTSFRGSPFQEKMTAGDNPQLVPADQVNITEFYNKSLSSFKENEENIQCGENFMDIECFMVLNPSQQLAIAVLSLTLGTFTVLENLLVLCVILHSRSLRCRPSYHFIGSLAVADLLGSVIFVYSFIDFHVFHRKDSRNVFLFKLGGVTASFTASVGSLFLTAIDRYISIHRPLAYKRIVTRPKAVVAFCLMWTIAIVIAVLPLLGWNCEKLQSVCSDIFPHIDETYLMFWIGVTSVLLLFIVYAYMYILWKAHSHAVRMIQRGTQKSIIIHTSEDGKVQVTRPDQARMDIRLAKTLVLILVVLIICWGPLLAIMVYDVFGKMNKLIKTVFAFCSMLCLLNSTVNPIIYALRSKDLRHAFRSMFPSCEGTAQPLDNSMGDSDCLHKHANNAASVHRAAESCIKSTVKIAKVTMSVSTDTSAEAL

[7] = Serum concentration on MBE1.5-formulated diet; type: in vivo, mouse
Experimental: Finally, to establish a pharmacokinetic profile throughout dosing, MBE1.5 was analyzed in serum 12 h post dose on day 1 and day 7. […] To accommodate consistent plasma concentrations without accumulation, MBE1.5 was formulated to a lower concentration in mouse diet that would administer a dose equivalent to 25 mg/kg daily. This formulated diet was provided to mice for 5 days, at which point serum was analyzed for MBE1.5 concentration at 6:30 a.m. and 4:00 p.m. on day 5 to capture differences in mouse feeding cycles.
No statistical method was used to predetermine the number of animals needed across experiments. […]
proteome profiling in A375 cells was performed in DMSO and at two concentrations of MBE1 using a 10 temperature melting curve for isolation, followed by proteomic analysis, filtering and mapping peptide frequency as a composite melting curve, n=3 biological replicates per condition-temperature. […] ALDH1A3 or NPTN were assessed by WB to confirm the stabilization of ALDH1A3 but not NPTN (55kD, as indicated by arrow) by MBE1. […]
analysis of MBE1.5 following identification of proper formulations and administration to fasted male CD1 mice at 1 mg/kg intravenous (IV) and 10 mg/kg oral gavage (PO). n = 3 mice per arm. […] Upon acclimation, serum MBE1.5 concentrations were calculated following blood draws at 6:30 am and 4 pm. n = 5 mice per arm. […]

[8] = target: T1, ALDH1A3 in MCF7 or SUM159-M1a-ALDH1A3 knockout cells (Homo sapiens, UniProt P47895); assay: Aldefluor dose titration, cells with ectopic ALDH1A3; type: cell-based
T1 construct: expressed in transfected cells; host or cells: MCF7 wild-type; SUM159-M1a-ALDH1A3 knockout
T1 sequence (P47895 whole entry): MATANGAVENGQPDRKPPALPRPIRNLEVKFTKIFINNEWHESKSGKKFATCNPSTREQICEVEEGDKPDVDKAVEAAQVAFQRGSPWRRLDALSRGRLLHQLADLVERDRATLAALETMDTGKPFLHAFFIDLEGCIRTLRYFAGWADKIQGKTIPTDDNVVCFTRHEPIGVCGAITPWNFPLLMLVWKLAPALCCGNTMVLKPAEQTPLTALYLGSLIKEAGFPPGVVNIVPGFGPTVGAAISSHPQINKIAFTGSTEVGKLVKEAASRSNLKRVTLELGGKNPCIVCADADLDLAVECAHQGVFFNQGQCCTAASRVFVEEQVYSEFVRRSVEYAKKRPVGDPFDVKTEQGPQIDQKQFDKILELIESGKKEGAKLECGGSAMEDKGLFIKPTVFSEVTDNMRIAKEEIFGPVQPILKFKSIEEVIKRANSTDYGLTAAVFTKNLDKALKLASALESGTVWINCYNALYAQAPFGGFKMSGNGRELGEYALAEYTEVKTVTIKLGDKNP
Experimental: Next, we developed three orthogonal methods to assess MBE1.5 selectivity and potency in cellular assays, as these cellular assays provide a more physiologically relevant method to assess target engagement and specificity. […] We confirmed expression of each enzyme and then performed a dose titration of the Aldefluor assay in each cell derivative with MBE1.5. […] Therefore, we performed thermal proteome profiling (TPP) on A375 melanoma cells exposed to DMSO, 100 nM MBE1, and 1 μM MBE1. […] These two doses would be expected to saturate ALDH1A3 binding based on the biochemical affinity while the high dose may be expected to identify potential MBE1 off-targets. […] We next assessed for melting point changes in the dataset using a 1.5°C cutoff and p < 0.05; 112 proteins were identified in the comparison between 100 nM MBE1 and DMSO, including ALDH1A3. […] Finally, we validated that MBE1.5 blocked the physiological function of ALDH1A3 by testing a dose titration of MBE1.5 in the retinoid inhibition assay using MCF7-ALDH1A3 cell-based readout.
In addition, cells were suspended at a concentration of 100,000 cells per mL. […] Cells were analyzed by a BD LSRII for flow cytometry and were sorted using a FACSAria Fusion cell sorter (BD Biosciences) equipped with a 70 micron nozzle. […]

Sequence of AR (P10275 whole entry): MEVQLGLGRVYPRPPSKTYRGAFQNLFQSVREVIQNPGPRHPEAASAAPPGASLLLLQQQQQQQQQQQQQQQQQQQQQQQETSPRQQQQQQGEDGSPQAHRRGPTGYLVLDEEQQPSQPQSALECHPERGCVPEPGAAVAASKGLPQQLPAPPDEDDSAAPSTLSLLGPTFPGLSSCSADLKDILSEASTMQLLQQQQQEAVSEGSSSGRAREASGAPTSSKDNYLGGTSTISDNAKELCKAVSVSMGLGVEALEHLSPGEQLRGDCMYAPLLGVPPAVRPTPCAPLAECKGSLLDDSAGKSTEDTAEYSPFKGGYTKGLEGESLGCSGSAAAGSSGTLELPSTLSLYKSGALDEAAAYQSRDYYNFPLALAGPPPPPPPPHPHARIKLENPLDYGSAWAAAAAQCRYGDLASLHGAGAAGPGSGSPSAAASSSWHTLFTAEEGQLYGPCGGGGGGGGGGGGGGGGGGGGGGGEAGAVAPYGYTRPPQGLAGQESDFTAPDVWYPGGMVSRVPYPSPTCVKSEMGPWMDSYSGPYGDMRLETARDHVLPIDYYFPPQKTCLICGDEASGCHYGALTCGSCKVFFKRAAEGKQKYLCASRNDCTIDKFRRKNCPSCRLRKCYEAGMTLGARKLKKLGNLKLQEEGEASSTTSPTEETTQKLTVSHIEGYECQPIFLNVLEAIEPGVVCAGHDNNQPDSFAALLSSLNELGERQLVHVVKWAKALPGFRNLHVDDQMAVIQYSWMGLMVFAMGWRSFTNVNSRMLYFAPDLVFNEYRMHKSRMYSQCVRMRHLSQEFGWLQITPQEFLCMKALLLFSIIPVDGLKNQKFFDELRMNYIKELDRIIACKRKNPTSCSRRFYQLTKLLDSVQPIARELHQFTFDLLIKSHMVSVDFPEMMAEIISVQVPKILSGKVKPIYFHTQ
Sequence of op-delta (P41143 whole entry): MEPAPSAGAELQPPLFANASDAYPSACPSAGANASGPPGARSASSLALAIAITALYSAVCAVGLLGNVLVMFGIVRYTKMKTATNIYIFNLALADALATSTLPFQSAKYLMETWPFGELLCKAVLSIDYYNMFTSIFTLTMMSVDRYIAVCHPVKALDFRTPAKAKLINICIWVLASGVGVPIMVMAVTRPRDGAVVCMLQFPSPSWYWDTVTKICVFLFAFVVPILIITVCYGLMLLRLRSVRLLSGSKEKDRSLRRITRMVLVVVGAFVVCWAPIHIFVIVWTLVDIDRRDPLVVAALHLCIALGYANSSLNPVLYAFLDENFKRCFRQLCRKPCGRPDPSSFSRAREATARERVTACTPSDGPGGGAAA

## CCc1cnccc1C(=O)Nc1cc2c(cc1F)NC(=O)CC2 [MBE1, 3-ethyl-N-(7-fluoro-2-oxo-3,4-dihydro-1H-quinolin-6-yl)pyridine-4-carboxamide]
[1]
  inhibition at 10 µM: 5.54%
[2]
  inhibition at 10 µM: -10.1%
[3]
  inhibition at 10 µM: -9.85%
[4]
  inhibition at 10 µM: 3.23%
[5]
  inhibition at 10 µM: 1.45%
[6]
  inhibition at 10 µM: -7.11%

## CCc1ccccc1C(=O)Nc1cc2c(cc1F)NC(=O)CC2 [MBE1.5, 2-ethyl-N-(7-fluoro-2-oxo-3,4-dihydro-1H-quinolin-6-yl)benzamide]
[7]; C57BL/6, mouse, serum, oral, 25 mg/kg daily, day 5, read-out: nadir serum concentration
  concentration at 5 day: ~270 nM
[7]; day 5
  nadir serum concentration as multiple of IC50 in the retinoid assay: more than 100 fold
[8]
  inhibition of ALDH1A3 in Aldefluor assay (in words): high potency
